These results are taken from patent US5684013A, “Tricyclic compounds useful for inhibition of g-protein function and for treatment of proliferative diseases” (Schering Corporation, priority 1995, dated 1997).

Where two headings read alike, the source gives them in different places.

The target in test [1] is T1, farnesyl protein transferase (FPT) (Rattus norvegicus, UniProt Q02293+Q04631).
T1 construct: were partially purified from rat brain by ammonium sulfate fractionation; from tissue; host or cells: rat brain
The test is described as follows: In vitro enzyme assay: inhibition of farnesyl protein transferase (FPT), Ras-CVLS farnesylation. Format: biochemical. The source says: (§1) 1. In vitro enzyme assays: Inhibition of farnesyl protein transferase and geranylgeranyl protein transferase.
Both farnesyl protein transferase (FPT) and geranylgeranyl protein transferase (GGPT) I were partially purified from rat brain by ammonium sulfate fractionation followed by Q-Sepharose (Pharmacia, Inc.) anion exchange chromatography essentially as described by Yokoyama et al (Yokoyama, K., et al., (1991), A protein geranylgeranyltransferase from bovine brain: Implications for protein prenylation specificity, Proc. Natl. Acad. Sci USA 88: 5302-5306, the disclosure of which is incorporated herein by reference thereto). Human farnesyl protein transferase was also expressed in E. coli, using cDNA clones encoding both the a and b subunits. The methods used were similar to those published (Omer, C. et al., (1993), Characterization of recombinant human farnesyl protein transferase: Cloning, expression, farnesyl diphosphate binding, and functional homology with yeast prenyl-protein transferases, Biochemistry 32:5167-5176). Human farnesyl protein transferase was partially-purified from the soluble protein fraction of E. coli as described above. the tricyclic farnesyl protein transferase inhibitors disclosed herein inhibited both human and rat enzyme with similar potencies. Two forms of val^12 -Ha-Ras protein were prepared as substrates for these enzymes, differing in their carboxy terminal sequence. One form terminated in cysteine-valine-leucine-serine (Ras-CVLS) the other in cystein-valine-leucine-leucine (Ras-CVLL). Ras-CVLS is a substrate for the farnesyl protein transferase while Ras-CVLL is a substrate for geranylgeranyl protein transferase I. The cDNAs encoding these proteins were constructed so that the proteins contain an amino-terminal extension of 6 histidine residues. Both proteins were expressed in Escherichia coli and purified using metal chelate affinity chromatography. The radiolabelled isoprenyl pyrophosphate substrates, [^3 H]farnesyl pyrophosphate and [^3 H]geranylgeranyl pyrophosphate, were purchased from DuPont/New England Nuclear.
Several methods for measuring farnesyl protein transferase activity have been described (Reiss et al 1990, Cell 62: 81; Schaber et al 1990, J. Biol. Chem. 265: 14701; Manne et al 1990, PNAS 87: 7541; and Barbacid & Manne 1993, U.S. Pat. No. 5,185,248). The activity was assayed by measuring the transfer of [^3 H]farnesyl from [^3 H]farnesyl pyrophosphate to Ras-CVLS using conditions similar to those described by Reiss et al. 1990 (Cell 62: 81) The reaction mixture contained 40 mM Hepes, pH 7.5; 20 mM magnesium chloride; 5 mM dithiothreitol; 0.25 μM [^3 H]farnesyl pyrophosphate; […] Q-Sepharose-purified farnesyl protein transferase; the indicated concentration of tricyclic compound or dimethylsulfoxide (DMSO) vehicle control (5% DMSO final); and […] Ras-CVLS in a total volume of […]. The reaction was allowed to proceed for 30 minutes at room temperature and then stopped with 0.5 ml of 4% sodium dodecyl sulfate (SDS) followed by 0.5 ml of cold 30% trichloracetic acid (TCA). Samples were allowed to sit on ice for 45 minutes and precipitated Ras protein was then collected on GF/C filter paper mats using a Brandel cell harvester. Filter mats were washed once with 6% TCA, 2% SDS and radioactivity was measured in a Wallac 1204 Betaplate BS liquid scintillation counter. Percent inhibition was calculated relative to the DMSO vehicle control.

The target in test [2] is T2, geranylgeranyl protein transferase (GGPT) I (Rattus norvegicus, UniProt P53610+Q04631).
T2 construct: were partially purified from rat brain by ammonium sulfate fractionation; from tissue; host or cells: rat brain
The experiment in a line: In vitro enzyme assay: inhibition of geranylgeranyl protein transferase (GGPT) I, Ras-CVLL as acceptor. Format: biochemical.
Description: as §1
Both farnesyl protein transferase (FPT) and geranylgeranyl protein transferase (GGPT) I were partially purified from rat brain by ammonium sulfate fractionation followed by Q-Sepharose (Pharmacia, Inc.) anion exchange chromatography essentially as described by Yokoyama et al (Yokoyama, K., et al., (1991), A protein geranylgeranyltransferase from bovine brain: Implications for protein prenylation specificity, Proc. Natl. Acad. Sci USA 88: 5302-5306, the disclosure of which is incorporated herein by reference thereto). Human farnesyl protein transferase was also expressed in E. coli, using cDNA clones encoding both the a and b subunits. The methods used were similar to those published (Omer, C. et al., (1993), Characterization of recombinant human farnesyl protein transferase: Cloning, expression, farnesyl diphosphate binding, and functional homology with yeast prenyl-protein transferases, Biochemistry 32:5167-5176). Human farnesyl protein transferase was partially-purified from the soluble protein fraction of E. coli as described above. the tricyclic farnesyl protein transferase inhibitors disclosed herein inhibited both human and rat enzyme with similar potencies. […]

Test [3] concerns T24-BAG4 human bladder carcinoma cells. The experiment in a line: Cell Mat Assay: inhibition of tumor cell growth. Format: cell-based. The note with it: 336 h, tIC50, 14 d colony formation. As to the method:
(§2) Normal human HEPM fibroblasts were planted in 3.5 cm dishes at a density of 5×10^4 cells/dish in 2 ml growth medium, and incubated for 3-5 d to achieve confluence. Medium was aspirated from each dish and the indicator tumor cells, T24-BAG4 human bladder carcinoma cells expressing an activated H-ras gene, were planted on top of the fibroblast monolayer at a density of 2×10^3 cells/dish in 2 ml growth medium, and allowed to attach overnight. Compound-induced colony inhibition was assayed by addition of serial dilutions of compound directly to the growth medium 24 h after tumor cell planting, and incubating cells for an additional 14 d to allow colony formation. Assays were terminated by rinsing monolayers twice with phosphate-buffered saline (PBS), fixing the monolayers with a 1% glutaraldehyde solution in PBS, then visualizing tumor cells by staining with X-Gal (Price, J., et al., Lineage analysis in the vertebrate nervous system by retrovirus-mediated gene transfer, Proc. Natl. Acad. Sci. 84, 156-160(1987)). In the colony inhibition assay, compounds were evaluated on the basis of two IC50 values: the concentration of drug required to prevent the increase in tumor cell number by 50% (tIC50) and the concentration of drug required to reduce the density of cells comprising the cell mat by 50% (mIC50). Both IC50 values were obtained by determining the density of tumor cells and mat cells by visual inspection and enumeration of cells per colony and the number of colonies under the microscope. The therapeutic index of the compound was quantitatively expressed as the ratio of mIC50 /tIC50, with values greater than one indicative of tumor target specificity.

Test [4] deals with Normal human HEPM fibroblasts. The test is described as follows: Cell Mat Assay: inhibition of normal cell growth (cell mat). Format: cell-based. The note with it: Fibroblast, mIC50, normal cell monolayer. How it is done: as §2
Test [5] has as its system Ras-CVLS processing in COS monkey kidney cells. The test is described as follows: Cell-Based Assay: Ras-CVLS processing in transfected COS monkey kidney cells. The note with it: Primates, read-out: COS IC50 (inhibition of Ras-CVLS processing). The source says:
2. Cell-Based Assay: Transient expression of val^12 -Ha-Ras-CVLS and val^12 -Ha-Ras-CVLL in COS monkey kidney cells: Effect of farnesyl protein transferase inhibitors on Ras processing and on disordered cell growth induced by transforming Ras.
COS monkey kidney cells were transfected by electroporation with the plasmid pSV-SPORT (Gibco/BRL) containing a cDNA insert encoding either Ras-CVLS or Ras-CVLL, leading to transient overexpression of a Ras substrate for either farnesyl protein transferase or geranylgeranyl protein transferase I, respectively (see above). […]
Membranes were blocked by incubation overnight at 4° C. in PBS containing 2.5% dried milk and 0.5% Tween-20 and then incubated with a Ras-specific monoclonal antibody, Y13-259 (Furth, M. E., et al., (1982), Monoclonal antibodies to the p21 products of the transforming gene of Harvey murine sarcome virus and of the cellular ras gene family, J. Virol. 43: 294-304), in PBS containing 1% fetal calf serum for one hour at room temperature. […] The presence of processed and unprocessed Ras-CVLS or Ras-CVLL was detected using a colorimetric peroxidase reagent (4-chloro-1-naphthol) as described by the manufacturer (Bio-Rad).

Setting [6] is: Table 3, comparison of FPT and GGPT inhibition, read-out: ENZYME INHIBITION FPT IC50.

As a reminder, the IC50 is the concentration needed to halve the response being measured. As for `O=S(=O)(c1cccs1)N1CCC/C(=C2\c3ccc(Cl)cc3CCc3cccnc32)C1` [Compound E-1G], the IC50 is less than 440 nM in test [1] (Table 2, read-out: FPT IC50); 470 nM in test [1] (setting [6]); less than 13 µM in test [2] (Table 3); 12.5 µM in test [3]; greater than 25 µM in test [4].
`O=S(=O)(c1ccccc1)N1CCC/C(=C2\c3ccc(Cl)cc3CCc3cccnc32)C1` [Compound E-2E]: the IC50 in test [1] (Table 2, read-out: FPT IC50) was 710 nM; in test [1] (setting [6]), 710 nM; in test [2] (Table 3, unit printed in the cell), 7.4 µM; in test [5] it was 2500 nM; in test [3], less than 3.1 µM; in test [4], greater than 50 µM.
Consider `O=S(=O)(c1ccccc1)N1CC/C(=C2\c3ccc(Cl)cc3CCc3cccnc32)C1` [Compound E-2], for which the IC50 was 590 nM in test [1] (Table 2, read-out: FPT IC50) and greater than 5000 nM in test [5].
